Test results published in patent US20230085307A1, “PYRIDAZINONE COMPOUND AND HERBICIDE” (NISSAN CHEMICAL CORPORATION, priority 2019, published 2023).

Legend:
[1] = system: southern crabgrass; experiment: Test Example 4: herbicidal effect by soil treatment (Table 19, symbol F); assay type: in vivo, southern crabgrass (Digitaria ciliaris); conditions: amount of applied herbicide 320 g/ha
Method in brief: (§1)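 Herbicidal effect was rated 3 weeks after treatment, using the scoring criteria of an earlier test. The compound, formulated as an emulsion and diluted in water to a set herbicide amount, had been sprayed uniformly on soil over freshly sown seeds. Growth took place in a greenhouse at 25° C. to 30° C.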

[2] = system: velvetleaf; experiment: Test Example 5: herbicidal effect by foliage application, plastic box (Table 20, symbol M); assay type: in vivo, velvetleaf (Abutilon theophrasti); conditions: foliage application, 320 g/ha, evaluated three weeks after application
Method in brief: (§2)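 Foliar spray test: emulsion formulation diluted in water to a set application rate, sprayed onto 14-day-old plants raised in diluvial soil at 25° C to 30° C under glass. Both herbicidal effect and crop effect rated visually three weeks later.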

[3] = system: barnyard grass; experiment: Test Example 5: herbicidal effect by foliage application, plastic box (Table 20, symbol H); assay type: in vivo, barnyard grass (Echinochloa crus-galli); conditions: foliage application, 320 g/ha, evaluated three weeks after application
Method in brief: as §2

[4] = system: barnyard grass; experiment: Test Example 3: herbicidal effect by foliage application, Wagner pot (Table 18, symbol H); assay type: in vivo, barnyard grass (Echinochloa crus-galli); conditions: amount of applied herbicide 320 g/ha
Method in brief: (§3)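 Plants were sown in alluvial soil held under 0.1–0.5 cm standing water and grown 14 days in a greenhouse at 25–30 °C. An emulsifiable formulation, water-diluted to the set dose, was then sprayed onto the foliage, and effects were scored three weeks later using previously defined criteria.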

[5] = system: windgrass; experiment: Test Example 4: herbicidal effect by soil treatment (Table 19, symbol L); assay type: in vivo, windgrass (Apera spica-venti); conditions: amount of applied herbicide 320 g/ha
Method in brief: as §1

[6] = system: late watergrass; experiment: Test Example 1: herbicidal activity, application before weed generation under submerged conditions (Table 16, symbol A); assay type: in vivo, late watergrass (Echinochloa oryzicola); conditions: 320 g/ha applied herbicide
Method in brief: (§4)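 Submerged Wagner pots (alluvial soil, 4 cm water) sown with weed seeds and planted with 2.5-leaf rice seedlings; emulsifiable concentrate diluted in water applied to water surface on sowing day. Held in greenhouse at 25-30 °C; injury scored 0-5 by herbicidal rate after three weeks.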

[7] = system: southern crabgrass; experiment: Test Example 5: herbicidal effect by foliage application, plastic box (Table 20, symbol F); assay type: in vivo, southern crabgrass (Digitaria ciliaris); conditions: foliage application, 320 g/ha, evaluated three weeks after application
Method in brief: as §2

[8] = system: lambsquarters; experiment: Test Example 5: herbicidal effect by foliage application, plastic box (Table 20, symbol O); assay type: in vivo, lambsquarters (Chenopodium album); conditions: foliage application, 320 g/ha, evaluated three weeks after application
Method in brief: as §2

[9] = system: wild oat; experiment: Test Example 4: herbicidal effect by soil treatment (Table 19, symbol I); assay type: in vivo, wild oat (Avena fatua); conditions: amount of applied herbicide 320 g/ha
Method in brief: as §1

[10] = system: green foxtail; experiment: Test Example 5: herbicidal effect by foliage application, plastic box (Table 20, symbol G); assay type: in vivo, green foxtail (Setaria viridis); conditions: foliage application, 320 g/ha, evaluated three weeks after application
Method in brief: as §2

[11] = system: redroot pigweed; experiment: Test Example 4: herbicidal effect by soil treatment (Table 19, symbol N); assay type: in vivo, redroot pigweed (Amaranthus retroflexus); conditions: amount of applied herbicide 320 g/ha
Method in brief: as §1

[12] = system: Italian ryegrass; experiment: Test Example 5: herbicidal effect by foliage application, plastic box (Table 20, symbol K); assay type: in vivo, Italian ryegrass (Lolium multiflorum); conditions: foliage application, 320 g/ha, evaluated three weeks after application
Method in brief: as §2

[13] = system: lambsquarters; experiment: Test Example 4: herbicidal effect by soil treatment (Table 19, symbol O); assay type: in vivo, lambsquarters (Chenopodium album); conditions: amount of applied herbicide 320 g/ha
Method in brief: as §1

[14] = system: Japanese bulrush; experiment: Test Example 1: herbicidal activity, application before weed generation under submerged conditions (Table 16, symbol B); assay type: in vivo, Japanese bulrush (Schoenoplectus juncoides); conditions: 320 g/ha applied herbicide
Method in brief: as §4

[15] = system: windgrass; experiment: Test Example 5: herbicidal effect by foliage application, plastic box (Table 20, symbol L); assay type: in vivo, windgrass (Apera spica-venti); conditions: foliage application, 320 g/ha, evaluated three weeks after application
Method in brief: as §2

[16] = system: green foxtail; experiment: Test Example 4: herbicidal effect by soil treatment (Table 19, symbol G); assay type: in vivo, green foxtail (Setaria viridis); conditions: amount of applied herbicide 320 g/ha
Method in brief: as §1

[17] = system: wild oat; experiment: Test Example 5: herbicidal effect by foliage application, plastic box (Table 20, symbol I); assay type: in vivo, wild oat (Avena fatua); conditions: foliage application, 320 g/ha, evaluated three weeks after application
Method in brief: as §2

[18] = system: rice flat sedge; experiment: Test Example 3: herbicidal effect by foliage application, Wagner pot (Table 18, symbol E); assay type: in vivo, rice flat sedge (Cyperus iria); conditions: amount of applied herbicide 320 g/ha
Method in brief: as §3

[19] = system: barnyard grass; experiment: Test Example 4: herbicidal effect by soil treatment (Table 19, symbol H); assay type: in vivo, barnyard grass (Echinochloa crus-galli); conditions: amount of applied herbicide 320 g/ha
Method in brief: as §1

[20] = system: false cleavers; experiment: Test Example 4: herbicidal effect by soil treatment (Table 19, symbol Q); assay type: in vivo, false cleavers (Galium spurium); conditions: amount of applied herbicide 320 g/ha
Method in brief: as §1

[21] = system: chickweed; experiment: Test Example 5: herbicidal effect by foliage application, plastic box (Table 20, symbol P); assay type: in vivo, common chickweed (Stellaria media); conditions: foliage application, 320 g/ha, evaluated three weeks after application
Method in brief: as §2

[22] = system: redroot pigweed; experiment: Test Example 5: herbicidal effect by foliage application, plastic box (Table 20, symbol N); assay type: in vivo, redroot pigweed (Amaranthus retroflexus); conditions: foliage application, 320 g/ha, evaluated three weeks after application
Method in brief: as §2

[23] = system: persian speedwell; experiment: Test Example 4: herbicidal effect by soil treatment (Table 19, symbol R); assay type: in vivo, Persian speedwell (Veronica persica); conditions: amount of applied herbicide 320 g/ha
Method in brief: as §1

[24] = system: blackgrass; experiment: Test Example 4: herbicidal effect by soil treatment (Table 19, symbol J); assay type: in vivo, blackgrass (Alopecurus myosuroides); conditions: amount of applied herbicide 320 g/ha
Method in brief: as §1

[25] = system: Chinese sprangletop; experiment: Test Example 3: herbicidal effect by foliage application, Wagner pot (Table 18, symbol D); assay type: in vivo, chinese sprangletop (Leptochloa chinensis); conditions: amount of applied herbicide 320 g/ha
Method in brief: as §3

[26] = system: chickweed; experiment: Test Example 4: herbicidal effect by soil treatment (Table 19, symbol P); assay type: in vivo, common chickweed (Stellaria media); conditions: amount of applied herbicide 320 g/ha
Method in brief: as §1

[27] = system: velvetleaf; experiment: Test Example 4: herbicidal effect by soil treatment (Table 19, symbol M); assay type: in vivo, velvetleaf (Abutilon theophrasti); conditions: amount of applied herbicide 320 g/ha
Method in brief: as §1

[28] = system: Italian ryegrass; experiment: Test Example 4: herbicidal effect by soil treatment (Table 19, symbol K); assay type: in vivo, Italian ryegrass (Lolium multiflorum); conditions: amount of applied herbicide 320 g/ha
Method in brief: as §1

[29] = system: oval-leafed pondweed; experiment: Test Example 1: herbicidal activity, application before weed generation under submerged conditions (Table 16, symbol C); assay type: in vivo, oval-leafed pondweed (Monochoria vaginalis); conditions: 320 g/ha applied herbicide
Method in brief: as §4

[30] = system: blackgrass; experiment: Test Example 5: herbicidal effect by foliage application, plastic box (Table 20, symbol J); assay type: in vivo, blackgrass (Alopecurus myosuroides); conditions: foliage application, 320 g/ha, evaluated three weeks after application
Method in brief: as §2

[31] = system: persian speedwell; experiment: Test Example 5: herbicidal effect by foliage application, plastic box (Table 20, symbol R); assay type: in vivo, Persian speedwell (Veronica persica); conditions: foliage application, 320 g/ha, evaluated three weeks after application
Method in brief: as §2

CCCCOc1cccc(-c2sc3ccc(F)cc3c2-c2c(O)c(C)nn(C)c2=O)c1 [2-219]
F: southern crabgrass, herbicidal effect rating [1]: 4 (Herbicidal rate of 70% or more and less than 90%)
herbicidal effect on M: velvetleaf (criteria 0-5) [2]: 2 (Herbicidal rate of 20% or more and less than 40%)
herbicidal effect on H: barnyard grass (criteria 0-5) [3]: 4 (Herbicidal rate of 70% or more and less than 90%)
herbicidal effect on H: barnyard grass [4]: 5 (Herbicidal rate of 90% or more (almost completely withered))
L: windgrass, herbicidal effect rating [5]: 0 (Herbicidal rate of 5% or less (almost no effect))
Herbicidal effect on A: late watergrass (grade 0-5) [6]: 3 (Herbicidal rate of 40% or more and less than 70%)
herbicidal effect on F: southern crabgrass (criteria 0-5) [7]: 4 (Herbicidal rate of 70% or more and less than 90%)
herbicidal effect on O: lambsquarters (criteria 0-5) [8]: 3 (Herbicidal rate of 40% or more and less than 70%)
I: wild oat, herbicidal effect rating [9]: 0 (Herbicidal rate of 5% or less (almost no effect))
herbicidal effect on G: green foxtail (criteria 0-5) [10]: 5 (Herbicidal rate of 90% or more (almost completely withered))
N: redroot pigweed, herbicidal effect rating [11]: 3 (Herbicidal rate of 40% or more and less than 70%)
herbicidal effect on K: Italian ryegrass (criteria 0-5) [12]: 0 (Herbicidal rate of 5% or less (almost no effect))
O: lambsquarters, herbicidal effect rating [13]: 1 (Herbicidal rate of 5% or more and less than 20%)
Herbicidal effect on B: Japanese bulrush (grade 0-5) [14]: 0 (Herbicidal rate of 5% or less (almost no effect))
herbicidal effect on L: windgrass (criteria 0-5) [15]: 0 (Herbicidal rate of 5% or less (almost no effect))
G: green foxtail, herbicidal effect rating [16]: 4 (Herbicidal rate of 70% or more and less than 90%)
herbicidal effect on I: wild oat (criteria 0-5) [17]: 0 (Herbicidal rate of 5% or less (almost no effect))
herbicidal effect on E: rice flat sedge [18]: 3 (Herbicidal rate of 40% or more and less than 70%)
H: barnyard grass, herbicidal effect rating [19]: 5 (Herbicidal rate of 90% or more (almost completely withered))
Q: false cleavers, herbicidal effect rating [20]: 0 (Herbicidal rate of 5% or less (almost no effect))
herbicidal effect on P: chickweed (criteria 0-5) [21]: 5 (Herbicidal rate of 90% or more (almost completely withered))
herbicidal effect on N: redroot pigweed (criteria 0-5) [22]: 5 (Herbicidal rate of 90% or more (almost completely withered))
R: persian speedwell, herbicidal effect rating [23]: 3 (Herbicidal rate of 40% or more and less than 70%)
J: blackgrass, herbicidal effect rating [24]: 0 (Herbicidal rate of 5% or less (almost no effect))
herbicidal effect on D: Chinese sprangletop [25]: 3 (Herbicidal rate of 40% or more and less than 70%)
P: chickweed, herbicidal effect rating [26]: 0 (Herbicidal rate of 5% or less (almost no effect))
M: velvetleaf, herbicidal effect rating [27]: 1 (Herbicidal rate of 5% or more and less than 20%)
K: Italian ryegrass, herbicidal effect rating [28]: 0 (Herbicidal rate of 5% or less (almost no effect))
Herbicidal effect on C: oval-leafed pondweed (grade 0-5) [29]: 0 (Herbicidal rate of 5% or less (almost no effect))
herbicidal effect on J: blackgrass (criteria 0-5) [30]: 0 (Herbicidal rate of 5% or less (almost no effect))
herbicidal effect on R: persian speedwell (criteria 0-5) [31]: 5 (Herbicidal rate of 90% or more (almost completely withered))
